The assay concerns trephine defect. Briefly: Bony ingrowth / regeneration in the trephine defect after systemic treatment of mice. Format: in vivo. The note with it: systemic administration.

This is an account of results in patent US20160030522A1, “COMBINATION THERAPY TO IMPROVE SOFT TISSUE HEALING, FAT GRAFT HEALING, ENDOCHONDRAL BONE HEALING AND OSTEOINTEGRATION” (priority 2013, published 2016).

Method: Mice and Injury Model: All experiments are performed in accordance with the IACUC guidelines. C57BL/6J wild-type mice aged 8-12 weeks are purchased from Jackson Laboratories (Bar Harbor, Me.). Mice are randomized to receive one of #1) no injury; #2) an implant stud having a porous polyethylene-polypropylene coating placed in a defect in the distal femur. […] Treatment Groups: Mice in each of the 4 experimental groups are randomly assigned to receive once daily one of: #1) saline i.p. injection; #2) AMD3100 (10 mg/kg, i.p.; PLERIXAFOR®; Genzyme Corp., Cambridge, Mass.) injection; #3) Teriparatide (0.285 mcg/kg, i.p.; FORTEO®; Eli Lilly and Company, Indianapolis, Ind.); or #4) AMD3100 (10 mg/kg, i.p.; PLERIXAFOR®; Genzyme Corp., Cambridge, Mass.); and teriparatide (0.285 mcg/kg, i.p.; FORTEO®; Eli Lilly and Company, Indianapolis, Ind.). […] BM is flushed from mouse long bones using PBS/10% FBS/5% EDTA, as previously described. Mononuclear cells (MNCs) from the peripheral blood and BM are isolated by density gradient centrifugation using Histopaque 1083 (Sigma-Aldrich; St. Louis, Mo.). […] Adobe Photoshop CS3 is used to segment and quantify positive CD31 staining. The vascular density of mouse wounds is determined by quantifying the total area of CD31+ staining (red) per megapixel (1×106 pixels square area) of wound stained.

For `c1cc(CN2CCCNCCNCCCNCC2)ccc1CN1CCCNCCNCCCNCC1` [AMD3100], the “bony ingrowth / bony regeneration” value was determined as 59.7%.

`CC[C@H](C)[C@H](NC(=O)[C@H](CCC(=O)O)NC(=O)[C@H](CO)NC(=O)[C@@H](NC(=O)[C@@H](N)CO)C(C)C)C(=O)N[C@@H](CCC(N)=O)C(=O)N[C@@H](CC(C)C)C(=O)N[C@@H](CCSC)C(=O)N[C@@H](Cc1cnc[nH]1)C(=O)N[C@@H](CC(N)=O)C(=O)N[C@@H](CC(C)C)C(=O)NCC(=O)N[C@@H](CCCCN)C(=O)N[C@@H](Cc1cnc[nH]1)C(=O)N[C@@H](CC(C)C)C(=O)N[C@@H](CC(N)=O)C(=O)N[C@@H](CO)C(=O)N[C@@H](CCSC)C(=O)N[C@@H](CCC(=O)O)C(=O)N[C@@H](CCCN=C(N)N)C(=O)N[C@H](C(=O)N[C@@H](CCC(=O)O)C(=O)N[C@@H](Cc1c[nH]c2ccccc12)C(=O)N[C@@H](CC(C)C)C(=O)N[C@@H](CCCN=C(N)N)C(=O)N[C@@H](CCCCN)C(=O)N[C@@H](CCCCN)C(=O)N[C@@H](CC(C)C)C(=O)N[C@@H](CCC(N)=O)C(=O)N[C@@H](CC(=O)O)C(=O)N[C@H](C(=O)N[C@@H](Cc1cnc[nH]1)C(=O)N[C@@H](CC(N)=O)C(=O)N[C@@H](Cc1ccccc1)C(=O)O)C(C)C)C(C)C` [PTH]: the “bony ingrowth / bony regeneration” value was 56%.
